Series [1] in a line: MTT cell viability assay, FB789 reference cell line. Type of series: cell-based. The settings on record: FB789 cells (normal human fibroblast). The text has this: (§1) Preliminary sunscreen data of 4a-d have been reported focusing on SKH1-E cell line, human abdominal skin explants, and in vivo hairless mouse models. Data for photo-adducts 6a-d, 7a-d, and 8a-d are not available. Thymine photo-adducts are well recognized as responsible for the activation of different molecular pathways involved in the cellular response to UV damage, including DNA repair system, melanogenesis, and Nucleotide Excision Repair (NER) system. In addition, TOP1ccs trapped near photo-adducts activates BER and remove (6-4)PPs in NER-deficient cells. TOP1 is highly expressed in malignant tumors, including carcinomas of the colon, prostate, ovary, lung, and melanoma. […] For this reason, we decided to study the antimelanoma activity of 4a-d, 6a-d, and 8a-d against two melanoma cancer cell lines, namely SK-MEL28 and RPMI7951 bearing a different genetic background. The antimelanoma activity was determined using the MTT cell viability assay, following the absorbance change (λmax 570 nm and 630 nm). The human FB789 cell line was used as reference. The CC50 (cytotoxic concentration that causes death of 50% of viable cells), IC50 (minimum concentration inhibiting 50% of the melanoma cells), and Selective Index (SI) (ratio between IC50 of reference cell line versus melanoma cell line) values are reported in Table 5. […] Compounds 4a-d were ineffective against melanoma cell lines. […] 234. Next, the antimelanoma activity of compounds 8a and 8b was evaluated after loading inside LNPs.
(§2) FB789 was grown in DMEM/F10, RPMI7951 melanoma cancer cells were grown in Minimal Essential Medium (MEM), while SK-Mel 28 melanoma cancer cells were grown in Dulbecco’s Modified Eagle Medium (DMEM). All culture media were supplemented with 10% Fetal Bovine Serum (FBS) plus 1.0 mM glutamine (40 µg/mL). The antimelanoma activity of 4a-d, 6a-d, and 8a-d was evaluated by MTT viability assay according to reference. Briefly, aliquots of the appropriate compound ([…]) were solubilized in dimethyl sulfoxide (one drops, DMSO) and administered to the selected cell line. After incubation for 3 h at 37 °C with MTT (0.5 mg/mL) the supernatant was removed, and […] of lysis solution (10% SDS and 0.6% acetic acid) was added to dissolve the formazan crystals. Optical density detection was performed by DTX880 Multimode Detector (Beckman Coulter) with 630 nm (background) and 570 nm filters. The percentage of cell viability was calculated as follows: % cell viability = 100–% cell cytotoxicity. The experiments for the evaluation of the antimelanoma activity of LNPs/8a and LNPs/8b were performed in a similar way using the appropriate amount of nanoparticles containing 1.0 mmol of the active compound and analyzing the antimelanoma activity at three different release times (2, 4, and 24 h).
On the technique in general: Tetrazolium dyes change colour on reduction, which living cells bring about.

The test system of series [2] is SK-Mel28. Kind of series: MTT cell viability assay, SK-Mel28 melanoma cells. The format is cell-based, human.
Source text: as §1, §2

For series [3], the system named is RPMI7951. Kind of series: MTT cell viability assay, RPMI7951 melanoma cells. The format is cell-based, human.
Source text: as §1, §2

Series [4] in a line: Loading capacity and loading efficiency of lignin nanoparticles. Type of series: physicochemical. The procedure:
A further increase in the secondary solvent afforded low stable colloidal LNPs (18 mL; Table 3, entry 4) and aggregates (24 mL; Table 3, entry 5). Finally, LNPs were not formed after the addition of high volumes of deionized water (Table 3, entries 6–8). The optimal conditions affording stable colloidal LNPs (1:5 w/w and 1:10 w/w 4a/KL ratio, 3.0 mL of DMI/water 2:1 v/v, and 6.0 mL of secondary solvent) were successively applied for the encapsulation of 4b-d, and of the most abundant photo-adducts 6a-d and 8a-d. The loading capacity (LC) and loading efficiency (LE) Equations (1) and (2) were measured as a function of the concentration of the encapsulated compound [55, 56, 57, 58].
LNPs were separated by centrifugation, and the supernatant was analyzed by HPLC at λmax value of the encapsulated compound (271 nm for 4a-d, 191 nm for 6a-d, and 192 nm for 8a-d, respectively). Irrespective from the experimental conditions, the highest LE and LC were obtained in the presence of the highest value of the compound/KL ratio (compound/KL ratio of 1:5). […] (1) LC %:weight of starting drug−weight of unloaded drug/weight of lignin (2) LE %:weight of starting drug−weight of unloaded drug/weight of starting drug
LNPs were produced and loaded by the nanoprecipitation technique. The appropriate compound (3 mg) was dissolved in DMI/water (3.0 mL) at 50 °C under gentle stirring conditions followed by the addition of KL (15 mg). The fast addition of deionized water (6.0 mL) instantaneously produced LNPs. LNPs were then recovered by centrifugation (7500 rpm), washed with deionized water (10 mL) for 3 times, and lyophilized. The loading capacity (LC) and loading efficiency (LE) were evaluated by UHPLC analysis.

Series [5] can be described thus: Cumulative (kinetic) release from lignin nanoparticles by dialysis. Conditions: pH 5.5, first 4 h, 37.5 °C. Type of series: physicochemical. The procedure: The cumulative releasing capacity of LNPs was evaluated as previously reported in the literature and normalized with respect to the total amount of entrapped compound. In a typical procedure, the appropriate LNPs (7.5 mg) were suspended in water (3.0 mL) and dialyzed against deionized water (60.0 mL) at two selected pH values (pH 7.4 and 5.5, respectively) at 37.5 °C for 24 h. The amount of released compound was measured by UV–vis spectrophotometry at the optimal λmax value for each compound by sampling the dialysis solution at appropriate time intervals (Figure 4). The withdrawn volume was replaced by corresponding deionized water in order to maintain constant the volume of the solution (Section 3).
LNPs (7.5 mg, compound/KL 1:5 ratio) were suspended in water (3.0 mL), placed in a dialysis membrane, and immersed in PBS buffer (60 mL) at two selected pH values (7.4 and 5.5, respectively) at 37.5 °C for 24 h. A similar procedure was applied solubilizing LNPs/8b (7.5 mg) water (3.0 mL), followed by dialysis against the culture medium DMEM (60 mL). […] The quantification of released compound was conducted by UV–Vis spectrophotometry at the λmax characteristic for each type of compound (271 nm for 4a-d, and 191 and 192 nm for 6a-d and 8a-d, respectively) using semi-micro cuvettes. […]

Setting [6] is: 24 h, ratio reference cell line FB789 versus melanoma cell line.

As usually defined, the CC50 is the concentration at which the toxic effect on the cells reaches its halfway point. Read a low CC50 as greater toxicity to the cells. Broadly, the IC50 is the concentration that gives 50% inhibition. Read a low IC50 as inhibition by little substance. The molecule `Cc1cn(CCCCCCn2cc(C)c(=O)[nH]c2=O)c(=O)[nH]c1=O` [Compound 4d, N1,N1′-(hexane-1,6-diyl)bis-thymine] gave a CC50 at 24 h in series [1] of 392 ± 5.2 µM. The “SI (SKMel28)” value in series [2] (setting [6]) is given as 2.3. In addition, the IC50 in series [2] (Homo sapiens, SK-MEL-28, 24 h) stood at 169 ± 4.6 µM; in series [3] (Homo sapiens, RPMI-7951, 24 h) it was 343 ± 7.6 µM. The “SI (RPMI7951)” value in series [3] (setting [6]) was 1.14. Also, the LC% in series [4] (Compd/KL ratio 1:5) is 14.37%; in series [4] (Compd/KL ratio 1:10), 7.14%. The LE% in series [4] (Compd/KL ratio 1:5) came out at 71.85%; in series [4] (Compd/KL ratio 1:10), 71.41%. Besides, the cumulative release in series [5] was determined as 71%.
